Measured values as given in PubChem BioAssay (NCI).
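Values below derive from 48-hour exposures of cells grown in 96-well plates, with endpoints linearly interpolated between the two concentrations bracketing the appropriate inhibition level. The concentration for 50% growth inhibition is given as GI50. TGI: concentration producing complete growth inhibition.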

Key:
Test in all cases: growth of human tumour cells (NCI), 48 h
786-0 renal = system: 786-0 renal
A498 renal = system: A498 renal
A549 NSCLC = system: A549 NSCLC
ACHN renal = system: ACHN renal
BT-549 breast = system: BT-549 breast
CCRF-CEM leukemia = system: CCRF-CEM leukemia
COLO 205 colon = system: COLO 205 colon
DU-145 prostate = system: DU-145 prostate
EKVX NSCLC = system: EKVX NSCLC
HCC-2998 colon = system: HCC-2998 colon
HCT-116 colon = system: HCT-116 colon
HCT-15 colon = system: HCT-15 colon
HL-60(TB) leukemia = system: HL-60(TB) leukemia
HOP-62 NSCLC = system: HOP-62 NSCLC
HOP-92 NSCLC = system: HOP-92 NSCLC
HS 578T breast = system: HS 578T breast
HT29 colon = system: HT29 colon
IGROV1 ovarian = system: IGROV1 ovarian
K-562 leukemia = system: K-562 leukemia
KM12 colon = system: KM12 colon
LOX IMVI melanoma = system: LOX IMVI melanoma
M14 melanoma = system: M14 melanoma
MALME-3M melanoma = system: MALME-3M melanoma
MCF7 breast = system: MCF7 breast
MDA-MB-231 breast = system: MDA-MB-231 breast
MDA-MB-435 = system: MDA-MB-435
MOLT-4 leukemia = system: MOLT-4 leukemia
NCI-H226 lung = system: NCI-H226 lung
NCI-H23 lung = system: NCI-H23 lung
NCI-H460 lung = system: NCI-H460 lung
NCI-H522 lung = system: NCI-H522 lung
NCI/ADR-RES ovarian = system: NCI/ADR-RES ovarian
OVCAR-3 ovarian = system: OVCAR-3 ovarian
OVCAR-4 ovarian = system: OVCAR-4 ovarian
OVCAR-5 ovarian = system: OVCAR-5 ovarian
OVCAR-8 ovarian = system: OVCAR-8 ovarian
PC-3 prostate = system: PC-3 prostate
RPMI-8226 leukemia = system: RPMI-8226 leukemia
RXF 393 renal = system: RXF 393 renal
SF-268 CNS = system: SF-268 CNS
SF-295 CNS = system: SF-295 CNS
SF-539 CNS = system: SF-539 CNS
SK-MEL-2 melanoma = system: SK-MEL-2 melanoma
SK-MEL-28 melanoma = system: SK-MEL-28 melanoma
SK-MEL-5 melanoma = system: SK-MEL-5 melanoma
SK-OV-3 ovarian = system: SK-OV-3 ovarian
SN12C renal = system: SN12C renal
SNB-19 CNS = system: SNB-19 CNS
SNB-75 CNS = system: SNB-75 CNS
SR leukemia = system: SR leukemia
SW-620 colon = system: SW-620 colon
T-47D breast = system: T-47D breast
U251 CNS = system: U251 CNS
UACC-257 melanoma = system: UACC-257 melanoma
UACC-62 melanoma = system: UACC-62 melanoma
UO-31 renal = system: UO-31 renal

In the case of `Cn1cc(-c2ccc(-c3cncc(Cl)c3N3CCC4(CCNC4=O)CC3)cc2)cn1`, the GI50 (786-0 renal) is reported as 14.6 µM, the TGI (786-0 renal) is reported as > 100 µM and the GI50 (A498 renal) is reported as 14.1 µM. The TGI (A498 renal) was > 100 µM, the GI50 (A549 NSCLC) was 29 µM and the TGI (A549 NSCLC) was > 100 µM. For the same compound, the GI50 (ACHN renal) was 23 µM, the TGI (ACHN renal) was > 100 µM and the GI50 (BT-549 breast) was 26 µM. The TGI (BT-549 breast) was > 100 µM, the GI50 (CCRF-CEM leukemia) was 44.5 µM and the TGI (CCRF-CEM leukemia) was > 100 µM. The GI50 (COLO 205 colon) was 10.6 µM, the TGI (COLO 205 colon) was > 100 µM and the GI50 (DU-145 prostate) was 50.3 µM. For the same compound, the TGI (DU-145 prostate) was > 100 µM, the GI50 (EKVX NSCLC) was 51.9 µM and the TGI (EKVX NSCLC) was > 100 µM. For the same compound, the GI50 (HCC-2998 colon) was > 100 µM, the TGI (HCC-2998 colon) was > 100 µM and the GI50 (HCT-116 colon) was 24.3 µM. The TGI (HCT-116 colon) was > 100 µM, the GI50 (HCT-15 colon) was 40.1 µM and the TGI (HCT-15 colon) was > 100 µM. The GI50 (HL-60(TB) leukemia) was 20.4 µM, the TGI (HL-60(TB) leukemia) was 55.5 µM and the GI50 (HOP-62 NSCLC) was 39.6 µM. The TGI (HOP-62 NSCLC) was > 100 µM, the GI50 (HOP-92 NSCLC) was > 100 µM and the TGI (HOP-92 NSCLC) was > 100 µM. The GI50 (HS 578T breast) was 80.1 µM, the TGI (HS 578T breast) was > 100 µM and the GI50 (HT29 colon) was 16.9 µM. The TGI (HT29 colon) was > 100 µM, the GI50 (IGROV1 ovarian) was 68 µM and the TGI (IGROV1 ovarian) was > 100 µM. The GI50 (K-562 leukemia) was 26.9 µM, the TGI (K-562 leukemia) was > 100 µM and the GI50 (KM12 colon) was 33.3 µM. The TGI (KM12 colon) was > 100 µM, the GI50 (LOX IMVI melanoma) was 77.1 µM and the TGI (LOX IMVI melanoma) was > 100 µM. For the same compound, the GI50 (M14 melanoma) was 76 µM, the TGI (M14 melanoma) was > 100 µM and the GI50 (MALME-3M melanoma) was 66.6 µM. The TGI (MALME-3M melanoma) was > 100 µM, the GI50 (MCF7 breast) was 38.5 µM and the TGI (MCF7 breast) was > 100 µM. The GI50 (MDA-MB-231 breast) was > 100 µM, the TGI (MDA-MB-231 breast) was > 100 µM and the GI50 (MDA-MB-435) was 38.7 µM. The TGI (MDA-MB-435) was > 100 µM, the GI50 (MOLT-4 leukemia) was 15.5 µM and the TGI (MOLT-4 leukemia) was > 100 µM. The GI50 (NCI-H226 lung) was 65.5 µM, the TGI (NCI-H226 lung) was > 100 µM and the GI50 (NCI-H23 lung) was > 100 µM. The TGI (NCI-H23 lung) was > 100 µM, the GI50 (NCI-H460 lung) was 69.1 µM and the TGI (NCI-H460 lung) was > 100 µM. The GI50 (NCI-H522 lung) was 26.4 µM, the TGI (NCI-H522 lung) was > 100 µM and the GI50 (NCI/ADR-RES ovarian) was 45.3 µM. The TGI (NCI/ADR-RES ovarian) was > 100 µM, the GI50 (OVCAR-3 ovarian) was 34.3 µM and the TGI (OVCAR-3 ovarian) was > 100 µM. The GI50 (OVCAR-4 ovarian) was 65.1 µM, the TGI (OVCAR-4 ovarian) was > 100 µM and the GI50 (OVCAR-5 ovarian) was > 100 µM. The TGI (OVCAR-5 ovarian) was > 100 µM, the GI50 (OVCAR-8 ovarian) was 29.4 µM and the TGI (OVCAR-8 ovarian) was > 100 µM. The GI50 (PC-3 prostate) was 47.3 µM, the TGI (PC-3 prostate) was > 100 µM and the GI50 (RPMI-8226 leukemia) was 17 µM. The TGI (RPMI-8226 leukemia) was 95.3 µM, the GI50 (RXF 393 renal) was 18.2 µM and the TGI (RXF 393 renal) was > 100 µM. The GI50 (SF-268 CNS) was 61.2 µM, the TGI (SF-268 CNS) was > 100 µM and the GI50 (SF-295 CNS) was 66.7 µM. The TGI (SF-295 CNS) was > 100 µM, the GI50 (SF-539 CNS) was 27.8 µM and the TGI (SF-539 CNS) was > 100 µM. The GI50 (SK-MEL-2 melanoma) was 24.7 µM, the TGI (SK-MEL-2 melanoma) was > 100 µM and the GI50 (SK-MEL-28 melanoma) was 79.2 µM. The TGI (SK-MEL-28 melanoma) was > 100 µM, the GI50 (SK-MEL-5 melanoma) was 40.3 µM and the TGI (SK-MEL-5 melanoma) was > 100 µM. For the same compound, the GI50 (SK-OV-3 ovarian) was 41.6 µM, the TGI (SK-OV-3 ovarian) was > 100 µM and the GI50 (SN12C renal) was 63.2 µM. The TGI (SN12C renal) was > 100 µM, the GI50 (SNB-19 CNS) was > 100 µM and the TGI (SNB-19 CNS) was > 100 µM. The GI50 (SNB-75 CNS) was 34.8 µM, the TGI (SNB-75 CNS) was > 100 µM and the GI50 (SR leukemia) was 1.68 µM. The TGI (SR leukemia) was 21.2 µM, the GI50 (SW-620 colon) was 47.7 µM and the TGI (SW-620 colon) was > 100 µM. The GI50 (T-47D breast) was 25.9 µM, the TGI (T-47D breast) was > 100 µM and the GI50 (U251 CNS) was 51.3 µM. The TGI (U251 CNS) was > 100 µM, the GI50 (UACC-257 melanoma) was > 100 µM and the TGI (UACC-257 melanoma) was > 100 µM. For the same compound, the GI50 (UACC-62 melanoma) was 60.7 µM, the TGI (UACC-62 melanoma) was > 100 µM and the GI50 (UO-31 renal) was 29 µM. The TGI (UO-31 renal) was > 100 µM.
